Test results as given in patent publication US11976058B2, “Aromatic derivatives, preparation methods, and medical uses thereof” (Bioardis LLC, priority 2019, dated 2024).

Tests used:
[1] = system: Hep3B cells; assay: Cell-based FGFR4 proliferation assay (CellTiter-Glo); settings: incubated with test compound for 3 days, CellTiter-Glo luminescence, read-out: Potency (IC50), Hep3B cell proliferation
Summary of the method: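 Hep3B cells in MEM/10% FBS were seeded overnight, then exposed to serially diluted compound (DMSO) for 3 days at 37 °C, 5% CO2. Viable cells were quantified by CellTiter-Glo luminescence (ATP), and IC50 was fitted by four-parameter logistic from percent inhibition.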

[2] = target: T1, human FGFR4 (Homo sapiens, UniProt P22455); assay: FGFR4 enzymatic assay (HTRF KinEASE-TK); format: biochemical; settings: wild-type human FGFR4 cytoplasmic domain (460-802), GST-tag; 60 min preincubation at 25° C.; ATP 200 μM; read-out: Potency (IC50), FGFR4 enzymatic assay
T1 construct: human FGFR4 cytoplasmic domain (460-802); GST (N); purchased Carna Biosciences 08-136
Summary of the method: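 GST-tagged FGFR4 cytoplasmic domain (460-802) at 0.25 μg/ml, preincubated with compound 60 min at 25 °C in HEPES pH 7.0 buffer, then reacted 40 min at 37 °C with 0.3 μM biotin-TK peptide and 200 μM ATP. HTRF detection (665/612 nm) after 60 min; IC50 by four-parameter logistic fit.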

[3] = system: MAPK phosphorylation in Hep3B cells stimulated with FGF19; assay: FGFR4 pMAPK AlphaLISA SureFire Ultra assay; format: cell-based; settings: serum-starved, compound 1 hour, FGF19 100 ng/ml for 4 hours, read-out: Potency (IC50), FGFR4 pMAPK AlphaLISA
Text: Cell line: Hepatocellular carcinoma cell line Hep3B (ATCC, Cat #HB-8064).
In normal liver, circulating FGF19 drives liver cell proliferation and regulates bile acid production. However aberrant expression of FGF19 in the liver drives HCC tumorigenesis, upregulates MAPK phosphorylation in FGF19-amplified malignant liver cells. AlphaScreen SureFire technology allows the detection of phosphorylated proteins in cellular lysates in a highly sensitive, quantitative assay. In these assays, sandwich antibody complexes, which are only formed in the presence of analyte, are captured by AlphaScreen Donor and Acceptor beads, bringing them into close proximity. The excitation of the Donor bead provokes the release of singlet oxygen molecules that triggers a cascade of energy transfer in the Acceptor beads, resulting in the emission of light at 520-620 nm.
Hep3B cells were plated at a density of 1×10^4/ml cells in a 96-well plate (Corning #3599), with 100 uL per well of MEM Medium (Gibco Cat #11095-080) supplemented with 10% fetal bovine serum; 1% Penicillin-Streptomycin, and cultured overnight at 37° C., 5% CO2. Starve Hep3B cells in serum-free medium (SFM) supplemented with 0.2% BSA and incubate the cells again overnight at 37° C., 5% CO2. Various concentrations of the test compound (prepared in 2x SFM) were added to the wells of the cell plate and then incubated for 1 hour at 37° C., 5% CO2. 50 μL of FGF19 in SFM was added to each well of the cell plate with a final FGF19 concentration of 100 ng/ml, and cells treated with FGF19 were stimulated for 4 hours at 37° C., 5% CO2. 5 μL of freshly prepared Donor Mix and Acceptor Mix were sequentially added to the cell plate, each followed with 1 hour of incubation at 25° C., 5% CO2. Read the cell plate on an Alpha Technology-compatible plate reader at 570 nm AlphaScreen, using standard AlphaLISA settings. The percent (%) inhibition=((ZPE−Alpha-Signal)/(ZPE−HPE))*100% where the meanings of HPE and ZPE are as provided below.
HPE: Hundred Percent Effect, negative control well without FGF19 nor compound. Final concentration of DMSO is 0.1%.
ZPE: Zero Percent Effect, positive control well without compound. Final concentration of FGF19 is 100 ng/mL, DMSO is 0.1%.
The concentrations and percent inhibition values for a test compound were plotted and the concentration of the compound required to achieve 50% inhibition (IC50) was determined with a four-parameter logistic dose response equation. Dose-response curves were generated using Prism (GraphPad Software, La Jolla, CA, US) to calculate IC50 values for each compound tested.

T1 sequence (P22455 460-802): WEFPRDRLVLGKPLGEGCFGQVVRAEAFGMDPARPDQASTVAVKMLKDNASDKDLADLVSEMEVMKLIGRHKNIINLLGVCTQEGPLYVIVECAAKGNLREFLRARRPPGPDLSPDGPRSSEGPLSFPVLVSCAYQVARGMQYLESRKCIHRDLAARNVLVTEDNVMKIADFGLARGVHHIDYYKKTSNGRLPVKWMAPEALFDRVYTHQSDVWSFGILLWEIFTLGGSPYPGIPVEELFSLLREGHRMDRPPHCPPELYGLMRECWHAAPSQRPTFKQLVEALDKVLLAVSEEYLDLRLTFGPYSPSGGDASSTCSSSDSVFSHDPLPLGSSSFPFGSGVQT

IC50 [1]: > 100 nM | IC50 [2]: 10 to 100 nM | IC50 [3]: 10 to 100 nM
Structure (SMILES): [2H]C([2H])([2H])n1ncc(NC(=O)C=C)c1-c1n[nH]c2c1CCC(c1cc(OC)cc(OC)c1F)C2 (single isomer, unassigned) [Compound S16-P4, N-(5-(6-(2-fluoro-3,5-dimethoxyphenyl)-4,5,6,7-tetrahydro-1H-indazol-3-yl)-1-(methyl-d3)-1H-pyrazol-4-yl)acrylamide]
